Test results reported in PubChem BioAssay (NCI).
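Test compounds were applied to cells in 96-well plates for 48 hours at 5 doses. TGI: concentration producing complete growth inhibition.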

How the values were obtained:
Test in all cases: growth of human tumour cells (NCI), 48 h
[1] = system: HOP-92 NSCLC
[2] = system: A549 NSCLC
[3] = system: UO-31 renal
[4] = system: HOP-62 NSCLC
[5] = system: DMS 273 small cell lung
[6] = system: HCT-116 colon
[7] = system: SF-295 CNS
[8] = system: RPMI-8226 leukemia
[9] = system: MOLT-4 leukemia
[10] = system: CAKI-1 renal
[11] = system: ACHN renal
[12] = system: DLD-1 colon
[13] = system: KM12 colon
[14] = system: DMS 114 small cell lung
[15] = system: NCI-H522 lung
[16] = system: SNB-19 CNS
[17] = system: SW-620 colon
[18] = system: SNB-78 CNS
[19] = system: A498 renal
[20] = system: HT29 colon
[21] = system: MALME-3M melanoma
[22] = system: UACC-257 melanoma
[23] = system: EKVX NSCLC
[24] = system: NCI-H226 lung
[25] = system: NCI-H23 lung
[26] = system: COLO 205 colon
[27] = system: OVCAR-8 ovarian
[28] = system: CCRF-CEM leukemia
[29] = system: SK-MEL-28 melanoma
[30] = system: LXFL 529 NSCLC
[31] = system: KM20L2 colon
[32] = system: SF-268 CNS
[33] = system: SK-MEL-5 melanoma
[34] = system: K-562 leukemia
[35] = system: LOX IMVI melanoma
[36] = system: HCT-15 colon
[37] = system: U251 CNS
[38] = system: OVCAR-4 ovarian
[39] = system: XF 498 CNS
[40] = system: HCC-2998 colon
[41] = system: OVCAR-3 ovarian
[42] = system: HL-60(TB) leukemia
[43] = system: 786-0 renal
[44] = system: M14 melanoma
[45] = system: SK-OV-3 ovarian
[46] = system: RXF 393 renal
[47] = system: NCI-H460 lung
[48] = system: SF-539 CNS
[49] = system: OVCAR-5 ovarian
[50] = system: M19-MEL melanoma
[51] = system: SNB-75 CNS
[52] = system: TK-10 renal
[53] = system: SK-MEL-2 melanoma
[54] = system: UACC-62 melanoma
[55] = system: SN12C renal
[56] = system: IGROV1 ovarian
[57] = system: SR leukemia
[58] = system: MDA-MB-435
[59] = system: BT-549 breast
[60] = system: HS 578T breast
[61] = system: MDA-N
[62] = system: PC-3 prostate
[63] = system: DU-145 prostate
[64] = system: NCI/ADR-RES ovarian
[65] = system: MCF7 breast
[66] = system: T-47D breast
[67] = system: MDA-MB-231 breast

In the case of `COC1=CC(=O)C2C(C1=O)[C@@H]1c3ccccc3OC(C)(C)[C@H]21` (stereo partly drawn), the TGI [1] is reported as 35.4 µM, the TGI [2] is reported as > 100 µM and the TGI [3] is reported as 38.1 µM. The TGI [4] was > 100 µM, the TGI [5] was 40.6 µM and the TGI [6] was 29.7 µM. For the same compound, the TGI [7] was > 100 µM, the TGI [8] was 72.2 µM and the TGI [9] was 41.2 µM. For the same compound, the TGI [10] was 31 µM, the TGI [11] was 27.2 µM and the TGI [12] was 34 µM. For the same compound, the TGI [13] was > 100 µM, the TGI [14] was 40.8 µM and the TGI [15] was 27.7 µM. The TGI [16] was 97.7 µM, the TGI [17] was 48 µM and the TGI [18] was 41.5 µM. The TGI [19] was > 100 µM, the TGI [20] was 99.4 µM and the TGI [21] was 34 µM. The TGI [22] was > 100 µM, the TGI [23] was 88.1 µM and the TGI [24] was 54.7 µM. For the same compound, the TGI [25] was 36.9 µM, the TGI [26] was 35.1 µM and the TGI [27] was 42.2 µM. It also gave a TGI [28] of 65.1 µM, a TGI [29] of 32.8 µM and a TGI [30] of 32.8 µM. The TGI [31] was 66.3 µM, the TGI [32] was 88.6 µM and the TGI [33] was 74 µM. For the same compound, the TGI [34] was 38.1 µM, the TGI [35] was 27.2 µM and the TGI [36] was 36.2 µM. The TGI [37] was > 100 µM, the TGI [38] was 32.4 µM and the TGI [39] was 32.1 µM. The TGI [40] was > 100 µM, the TGI [41] was 28.3 µM and the TGI [42] was 33.8 µM. For the same compound, the TGI [43] was 33.6 µM, the TGI [44] was 33.8 µM and the TGI [45] was > 100 µM. For the same compound, the TGI [46] was 27.1 µM, the TGI [47] was > 100 µM and the TGI [48] was 58.3 µM. For the same compound, the TGI [49] was > 100 µM, the TGI [50] was 34.5 µM and the TGI [51] was > 100 µM. For the same compound, the TGI [52] was 38.6 µM and the TGI [53] was 71.2 µM.

For `CCN(CCCl)CCCCCNc1c2ccccc2nc2ccc(OC)cc12`, the TGI [1] was 3.21 µM, the TGI [2] was 4.4 µM and the TGI [3] was 12.7 µM. The TGI [4] was 8.38 µM, the TGI [5] was 1.78 µM and the TGI [6] was 1.43 µM. The TGI [7] was 9.68 µM, the TGI [8] was 1.47 µM and the TGI [9] was 0.279 µM. It also gave a TGI [10] of 16.7 µM, a TGI [11] of 3.09 µM and a TGI [12] of 2.95 µM. The TGI [54] was 1.8 µM, the TGI [13] was 1.81 µM and the TGI [14] was 1.91 µM. It also gave a TGI [15] of 2.03 µM, a TGI [16] of 3.78 µM and a TGI [17] of 1.63 µM. It also gave a TGI [18] of 8.57 µM, a TGI [19] of 3.52 µM and a TGI [20] of 2.94 µM. For the same compound, the TGI [21] was 5.93 µM, the TGI [22] was 10.8 µM and the TGI [55] was 1.78 µM. It also gave a TGI [23] of 18.1 µM, a TGI [24] of 2.3 µM and a TGI [25] of 1.55 µM. For the same compound, the TGI [26] was 3.03 µM, the TGI [27] was 1.96 µM and the TGI [28] was 2.78 µM. For the same compound, the TGI [29] was 12.1 µM, the TGI [30] was 1.93 µM and the TGI [31] was 4.38 µM. For the same compound, the TGI [32] was 5.98 µM, the TGI [33] was 2.69 µM and the TGI [34] was 1.06 µM. It also gave a TGI [35] of 1.09 µM, a TGI [56] of 4.24 µM and a TGI [36] of 10.9 µM. The TGI [37] was 2.23 µM, the TGI [38] was 3.42 µM and the TGI [39] was 1.36 µM. For the same compound, the TGI [40] was 2.94 µM, the TGI [41] was 7.28 µM and the TGI [42] was 0.266 µM. For the same compound, the TGI [43] was 1.63 µM, the TGI [44] was 9.74 µM and the TGI [45] was 3.62 µM. For the same compound, the TGI [46] was 2.4 µM, the TGI [47] was 1.51 µM and the TGI [48] was 2.65 µM. The TGI [49] was 5.39 µM, the TGI [50] was 2.15 µM and the TGI [51] was 3.02 µM. The TGI [52] was 44.3 µM and the TGI [53] was 2.7 µM.

For `Nc1ncnc2c1ncn2C1OC(CO)C(O)C1NS(=O)(=O)c1ccccc1` (stereo not drawn), the TGI [1] was > 100 µM, the TGI [2] was > 100 µM and the TGI [57] was > 100 µM. The TGI [3] was > 100 µM, the TGI [4] was > 100 µM and the TGI [6] was > 100 µM. For the same compound, the TGI [7] was > 100 µM, the TGI [8] was > 100 µM and the TGI [9] was > 100 µM. The TGI [10] was > 100 µM, the TGI [58] was > 100 µM and the TGI [11] was > 100 µM. For the same compound, the TGI [59] was > 100 µM, the TGI [54] was > 100 µM and the TGI [13] was > 100 µM. The TGI [15] was > 100 µM, the TGI [60] was > 100 µM and the TGI [16] was > 100 µM. For the same compound, the TGI [17] was > 100 µM, the TGI [19] was > 100 µM and the TGI [20] was > 100 µM. For the same compound, the TGI [21] was > 100 µM, the TGI [61] was > 100 µM and the TGI [22] was > 100 µM. The TGI [55] was > 100 µM, the TGI [23] was > 100 µM and the TGI [24] was > 100 µM. The TGI [25] was > 100 µM, the TGI [26] was > 100 µM and the TGI [27] was > 100 µM. For the same compound, the TGI [62] was > 100 µM, the TGI [28] was > 100 µM and the TGI [29] was > 100 µM. For the same compound, the TGI [32] was > 100 µM, the TGI [33] was > 100 µM and the TGI [34] was > 100 µM. The TGI [35] was > 100 µM, the TGI [56] was > 100 µM and the TGI [36] was > 100 µM. For the same compound, the TGI [37] was > 100 µM, the TGI [63] was > 100 µM and the TGI [38] was > 100 µM. For the same compound, the TGI [64] was > 100 µM, the TGI [40] was > 100 µM and the TGI [41] was > 100 µM. For the same compound, the TGI [42] was > 100 µM, the TGI [43] was > 100 µM and the TGI [44] was > 100 µM. The TGI [65] was > 100 µM, the TGI [45] was > 100 µM and the TGI [66] was > 100 µM. The TGI [46] was > 100 µM, the TGI [67] was > 100 µM and the TGI [47] was > 100 µM. For the same compound, the TGI [48] was > 100 µM, the TGI [49] was > 100 µM and the TGI [51] was > 100 µM. The TGI [52] was > 100 µM and the TGI [53] was > 100 µM.
